Data taken from ChEMBL document CHEMBL4431369, “Synthesis and hypoglycemic activity of 9-O-(lipophilic group substituted) berberine derivatives” (Bioorg Med Chem Lett, 2016).

What was measured:
HepG2 [1] = experiment: Cytotoxicity against human HepG2 cells assessed as reduction in cell viability after 48 hrs by MTT assay; type: cell-based; conditions: for IC50: Homo sapiens, HepG2, 48 h; for Activity: human, hepg2, 48 h
HepG2 [2] = experiment: Hypoglycemic activity in human HepG2 cells assessed as increase in glucose consumption at 5 ug/ml after 48 hrs relative to BBR; type: functional
HepG2 [3] = experiment: Hypoglycemic activity in human HepG2 cells assessed as increase in glucose consumption after 48 hrs; type: functional, cell-based
HepG2 [4] = experiment: Hypoglycemic activity in human HepG2 cells assessed as increase in glucose consumption at 5 ug/ml after 48 hrs relative to control; type: functional
HepG2 [5] = experiment: Cytotoxicity against human HepG2 cells assessed as reduction in cell viability at 125 ug/ml after 48 hrs by MTT assay; type: cell-based; conditions: hepg2, 48 h
[6] = Ratio of compound IC50 to BBR IC50 for cytotoxicity against human HepG2 cells; type: cell-based; conditions: read-out: Ratio IC50

| SMILES | IC50 (HepG2 [1]) | Activity (HepG2 [1]) | Activity (HepG2 [2]) | Activity (HepG2 [3]) | Activity (HepG2 [4]) | Activity (HepG2 [5]) | selectivity ratio [6] |
| --- | --- | --- | --- | --- | --- | --- | --- |
| COc1ccc2cc3[n+](cc2c1OC(=O)c1cccnc1)CCc1cc2c(cc1-3)OCO2.[Cl-] | 72.1 µg/mL | Dose-dependent effect | 0% | Dose-dependent effect | 45.7% | – | – |
| COc1ccc2cc3[n+](cc2c1OC(=O)c1ccc(OC(C)=O)cc1)CCc1cc2c(cc1-3)OCO2.[Cl-] | 42.9 µg/mL | Dose-dependent effect | -9.6% | Dose-dependent effect | 31.7% | – | – |
| COc1ccc2cc3[n+](cc2c1OC(=O)/C=C/c1ccccc1)CCc1cc2c(cc1-3)OCO2.[Cl-] | 52.3 µg/mL | Dose-dependent effect | 33.6% | Dose-dependent effect | 94.5% | – | – |
| COc1ccc2cc3[n+](cc2c1OC(=O)c1ccc([N+](=O)[O-])cc1)CCc1cc2c(cc1-3)OCO2.[Cl-] | 37.9 µg/mL | Dose-dependent effect | -15.9% | Dose-dependent effect | 22.4% | – | – |
| COc1ccc2cc3[n+](cc2c1OC(=O)c1ccccc1[N+](=O)[O-])CCc1cc2c(cc1-3)OCO2.[Cl-] | 46.9 µg/mL | Dose-dependent effect | -8.1% | Dose-dependent effect | 33.8% | – | – |
| COc1cc(/C=C/C(=O)Oc2c(OC)ccc3cc4[n+](cc23)CCc2cc3c(cc2-4)OCO3)ccc1OC(=O)c1cccnc1.[Cl-] | 91.5 µg/mL | Dose-dependent effect | -16.3% | Dose-dependent effect | 21.8% | Non-Toxic | 1.95 |
| COc1ccc2cc3[n+](cc2c1OC(=O)c1ccncc1)CCc1cc2c(cc1-3)OCO2.[Cl-] | 82.5 µg/mL | Dose-dependent effect | -10.6% | Dose-dependent effect | 30.2% | – | – |
| CN(C)C(=N)NC(=N)N [METFORMIN] | – | – | -17.6% | – | 20% | – | – |
| COc1ccc2cc3[n+](cc2c1OC(=O)c1ccccc1)CCc1cc2c(cc1-3)OCO2.[Cl-] | 65.9 µg/mL | Dose-dependent effect | -3.9% | Dose-dependent effect | 40% | – | – |
| COc1ccc2cc3[n+](cc2c1OC(=O)c1cccc([N+](=O)[O-])c1)CCc1cc2c(cc1-3)OCO2.[Cl-] | 27.9 µg/mL | Dose-dependent effect | -12.1% | Dose-dependent effect | 28% | – | – |
| COc1cc(/C=C/C(=O)Oc2c(OC)ccc3cc4[n+](cc23)CCc2cc3c(cc2-4)OCO3)ccc1OC(C)=O.[Cl-] | 73.5 µg/mL | Dose-dependent effect | 27.4% | Dose-dependent effect | 85.5% | – | 1.57 |
| COc1ccc2cc3[n+](cc2c1OC(=O)c1ccccn1)CCc1cc2c(cc1-3)OCO2.[Cl-] | 41.6 µg/mL | Dose-dependent effect | 4.2% | Dose-dependent effect | 51.7% | – | – |
| COc1ccc2cc3[n+](cc2c1OC)CCc1cc2c(cc1-3)OCO2 [BERBERINE] | 46.9 µg/mL | Dose-dependent effect | – | – | 45.6% | Toxic | – |
